Experimental data: publication PMC10611828 (European Journal of Nuclear Medicine and Molecular Imaging, 2023)
Like-named read-outs stand apart in the source and are kept apart here.

What was measured:
[1] = Stability in human serum at 37 °C (radio-HPLC); type: in vitro ADME
Protocol: (§1) The ^177Lu-labeled peptides were incubated in 300-μL phosphate buffered saline (PBS; Gibco, ThermoFisher, The Netherlands) at 37 °C, and their stability was verified after 1, 4, 24, 48, and 72 h by radio-HPLC (Supplementary Fig. 2). The stability in serum was determined by incubating the radiolabeled compounds into 300 μL of mouse serum (Invitrogen, USA) or human serum (Sigma Aldrich, USA) at 37 °C (Supplementary Fig. 3, 4). At each time point post-incubation, 35 μL of the mixture was added to an Eppendorf tube, and the proteins were precipitated by adding an equal volume of acetonitrile. The tubes were centrifuged at 16,000 rpm, 4 °C for 20 min, and the stability was monitored by radio-HPLC, expressed as the RCP at the different time points.

[2] = In vivo biodistribution and clearance in PC-3 tumor-bearing mice; conditions: male, NMRI-Foxn1 nu/nu, mouse, iv, total radioactivity, i.v.; for tissue uptake at 1 h: 1 h p.i.; for tissue uptake at 4 h: 4 h p.i.; for tissue uptake at 24 h: 24 h p.i.; for tissue uptake at 48 h: 48 h p.i.; for tissue uptake at 72 h: 72 h p.i.
Protocol: All animal experiments were approved by the Animal Welfare Committee of the Erasmus MC, and all experiments were conducted in accordance to institutional guidelines.
At 1, 4, 24, 48, and 72 h post-injection (p.i.), animals were sedated using 2.5% isoflurane in oxygen, and blood was collected via the orbital vein, after which the animals were euthanized using cervical dislocation. Subsequently, the following organs were collected; the tail, tumor, spleen, liver, pancreas, small intestine, colon, coecum, kidneys, lung, and muscle. […] The collected tumor and organs were weighed, and the radioactivity was measured in the gamma counter. The biodistribution data are expressed as percentage injected dose per gram of tissue (% ID/g). Animal numbers per group are indicated in Supplementary Table 1 and 2.
Statistical analysis was performed using Graphpad Prism version 9.0.0. Outliers were identified using the ROUT method with a Q value of 1%. IC50 curves were determined using non-linear regression.

[3] = parameters: method as in PMID 35951084; conditions: cited from earlier work
[4] = Stability in mouse serum at 37 °C (radio-HPLC); type: in vitro ADME
Protocol: as §1

[5] = 1 h, read-out: intact radiolabeled ligand (RCP)
[6] = 4 h, read-out: intact radiolabeled ligand (RCP)
[7] = 24 h, read-out: intact radiolabeled ligand (RCP)
[8] = 48 h, read-out: intact radiolabeled ligand (RCP)
[9] = 72 h, read-out: intact radiolabeled ligand (RCP)
[10] = PC-3 tumor, read-out: % uptake PC-3 tumor
[11] = blood, read-out: % uptake blood
[12] = gastrointestinal tract, read-out: % uptake gastrointestinal tract
[13] = kidney, read-out: % uptake kidney
[14] = liver, read-out: % uptake liver
[15] = muscle, read-out: % uptake muscle
[16] = pancreas, read-out: % uptake pancreas
[17] = prostate, read-out: % uptake prostate
[18] = spleen, read-out: % uptake spleen

CC(C)CC(CC(C)C)NC(=O)[C@H](Cc1cnc[nH]1)NC(=O)CNC(=O)[C@@H](NC(=O)[C@H](C)NC(=O)[C@H](Cc1c[nH]c2ccccc12)NC(=O)[C@H](CCC(N)=O)NC(=O)[C@@H](Cc1ccccc1)NC(=O)COCC(=O)Nc1ccc(CNC(=O)CN2CCN(CC(=O)O)CCN(CC(=O)O)CCN(CC(=O)O)CC2)cc1)C(C)C [[^177Lu]Lu-NeoB, metal not drawn]
intact radiolabeled ligand (RCP) ([1]; 0 h): 97.1 ± 0.3% | remaining at 1 h [1, 5]: 97.9 ± 0.2% | remaining at 4 h [1, 6]: 97.8 ± 0.3% | remaining at 24 h [1, 7]: 89.2 ± 0.5% | remaining at 48 h [1, 8]: 81 ± 0.7% | remaining at 72 h [1, 9]: 75.6 ± 1.7% | tissue uptake at 1 h [2, 10]: 9.38 ± 0.81 %ID/g | tissue uptake at 4 h [2, 10]: 9.98 ± 2.64 %ID/g | tissue uptake at 24 h [2, 10]: 8.05 %ID/g | tissue uptake at 48 h [2, 10]: 4.77 %ID/g | tissue uptake at 72 h [2, 10]: 2.88 %ID/g | tissue uptake at 1 h [2, 11]: 1.15 %ID/g | tissue uptake at 4 h [2, 11]: 0.11 %ID/g | tissue uptake at 24 h [2, 11]: 0.01 %ID/g | tissue uptake at 48 h [2, 11]: 0.01 %ID/g | tissue uptake at 1 h [2, 12]: 3.08 %ID/g | tissue uptake at 4 h [2, 12]: 1.91 %ID/g | tissue uptake at 24 h [2, 12]: 0.09 %ID/g | tissue uptake at 48 h [2, 12]: 0.26 %ID/g | tissue uptake at 72 h [2, 12]: 0.15 %ID/g | tissue uptake at 1 h [2, 13]: 2.68 %ID/g | tissue uptake at 4 h [2, 13]: 0.86 %ID/g | tissue uptake at 24 h [2, 13]: 0.1 %ID/g | tissue uptake at 48 h [2, 13]: 0.06 %ID/g | tissue uptake at 72 h [2, 13]: 0.04 %ID/g | tissue uptake at 1 h [2, 14]: 3.35 %ID/g | tissue uptake at 4 h [2, 14]: 0.54 %ID/g | tissue uptake at 24 h [2, 14]: 0.12 %ID/g | tissue uptake at 48 h [2, 14]: 0.08 %ID/g | tissue uptake at 72 h [2, 14]: 0.06 %ID/g | tissue uptake at 1 h ([2]; lung, read-out: % uptake lungs): 0.69 %ID/g | tissue uptake at 4 h ([2]; lung, read-out: % uptake lungs): 0.09 %ID/g | tissue uptake at 24 h ([2]; lung, read-out: % uptake lungs): 0.02 %ID/g | tissue uptake at 48 h ([2]; lung, read-out: % uptake lungs): 0.01 %ID/g | tissue uptake at 72 h ([2]; lung, read-out: % uptake lungs): 0.01 %ID/g | tissue uptake at 1 h [2, 15]: 0.13 %ID/g | tissue uptake at 4 h [2, 15]: 0.05 %ID/g | tissue uptake at 1 h [2, 16]: 30.7 ± 4.29 %ID/g | tissue uptake at 4 h [2, 16]: 21.4 ± 3.05 %ID/g | tissue uptake at 24 h [2, 16]: 4.14 %ID/g | tissue uptake at 48 h [2, 16]: 0.83 %ID/g | tissue uptake at 72 h [2, 16]: 0.35 %ID/g | tissue uptake at 1 h [2, 17]: 0.7 %ID/g | tissue uptake at 4 h [2, 17]: 0.08 %ID/g | tissue uptake at 24 h [2, 17]: 0.02 %ID/g | tissue uptake at 48 h [2, 17]: 0.01 %ID/g | tissue uptake at 72 h [2, 17]: 0.01 %ID/g | tissue uptake at 1 h [2, 18]: 0.43 %ID/g | tissue uptake at 4 h [2, 18]: 0.15 %ID/g | tissue uptake at 24 h [2, 18]: 0.04 %ID/g | tissue uptake at 48 h [2, 18]: 0.02 %ID/g | tissue uptake at 72 h [2, 18]: 0.01 %ID/g | tolerability ([3]; after repeated radiotracer administration): well tolerated | hematological effects after treatment [3]: no lasting hematological effects | intact radiolabeled ligand (RCP) ([4]; 0 h): 97.1 ± 0.3% | remaining at 1 h [4, 5]: 94.3 ± 0.7% | remaining at 4 h [4, 6]: 84.1 ± 1.1% | remaining at 24 h [4, 7]: 27.9 ± 2.3% | remaining at 48 h [4, 8]: 14.2 ± 1% | remaining at 72 h [4, 9]: 4.4 ± 1.2%
